We go through 4 compounds from patent US11078207B2, “Substituted pyrrolo[2,3-d]pyrimidines as HER2 inhibitors” (TAIHO PHARMACEUTICAL CO., LTD., priority 2019, dated 2021).

One data set concerns brain metastatic cancer. The conditions noted are these: clinical tests, Non Patent Literatures 6-9; cited from earlier work.
The conditions of data set [1]: non-clinical tests, Non Patent Literature 5; cited from earlier work.
The next data set relates to p-gp or Bcrp. The conditions noted are these: Non Patent Literature 5; cited from earlier work.
The next data set concerns NCI-N87 cells. Description: Growth inhibitory activity against HER2 expressing cell line NCI-N87. It is filed as cell-based. The conditions noted are these: Homo sapiens, NCI-N87, 72 h; 3 days, CellTiter-Glo 2.0. On the procedure: NCI-N87 cells as a HER2 overexpressing human stomach cancer cell line (American Type Culture Collection, Cat No. ATCC (registered trademark) CRL-5822) were suspended in an RPMI640 medium (Wako Pure Chemical Industries, Ltd.) supplemented with 10% fetal bovine serum. Subsequently, the cell suspension was seeded in each well of a 96-well flat-bottom microplate, and was then cultured in a 5% carbon dioxide gas-containing culture vessel at 37° C. for 1 day. Thereafter, the compound of the present invention was dissolved in DMSO, and the compound was diluted to 1000 times the final concentration in DMSO. The compound in the DMSO solution was diluted with the medium used in the suspension of the cells, and the obtained solution was then added to each well of the culture plate, so that the final concentration of DMSO became 0.1%. Regarding a control well, DMSO was diluted with the medium used in the suspension of the cells, and the obtained solution was then added to each well of the culture plate, so that the final concentration of DMSO became 0.1%. After addition of a drug solution, the obtained mixture was further cultured in the 5% carbon dioxide gas-containing culture vessel at 37° C. for 3 days. After completion of the culture for 3 days in the presence of the compound, the cells were counted using CellTiter-Glo 2.0 (manufactured by Promega) in accordance with the protocols recommended by Promega. The growth inhibition percentage was calculated according to the following equation. […] Growth inhibitory percentage (%)=(C−T)/(C)×100 T: Emission intensity from the well to which the test compound was added C: Emission intensity from the well to which the test compound was not added
In general terms: Cellular ATP, detected with luciferase, serves as a proxy for viable cell number.

For data set [2], the target named is HER2 exon 20 insertion mutant (HER2ex20insYVMA, A775_G776insYVMA) (Homo sapiens, UniProt P04626, DUP772-775). Nature of the data set: Inhibitory action (in vitro) against HER2 exon 20 insertion mutant phosphorylation activity. It is filed as biochemical. The conditions noted are these: 30 min pre-incubation, ATP 200 μM, 25° C. 220 minutes. From the text: In order to determine conditions for a method of measuring the in vitro inhibitory activity of a compound against HER2 exon 20 insertion mutant phosphorylation activity, as in the case of HER2, ProfilerPro Peptide 22 was used as a substrate. A purified recombinant human HER2 exon 20 insertion mutant (A775_G776insYVMA) protein is shown in SEQ ID NO: 7, and was purchased from SignalChem. Upon the measurement of the inhibitory activity of the compound, first, the compound of the present invention was diluted stepwise with dimethyl sulfoxide (DMSO). Subsequently, the HER2 exon 20 insertion mutant protein and the compound of the present invention in DMSO solution (final concentration of DMSO: 5%) were added into a buffer for the kinase reaction (13.5 mM Tris (pH 7.5), 2 mM dithiothreitol, and 0.009% Tween 20), and the obtained mixture was then pre-incubated at 25° C. for 30 minutes. Thereafter, the substrate peptide (final concentration: 1 μM), manganese chloride (final concentration: 25 mM), magnesium chloride (final concentration: 20 mM), and ATP (final concentration: 200 μM) were added into the reaction mixture, and the thus obtained mixture was then incubated at 25° C. for 220 minutes, so that the kinase reaction was carried out. To the reaction solution, EDTA was added to a final concentration of 30 mM, so as to terminate the reaction. Finally, using LabChip (registered trademark) EZ Reader II (PerkinElmer), an unphosphorylated substrate peptide (S) and a phosphorylated peptide (P) were separated and detected according to microchannel capillary electrophoresis.
Sequence of HER2 exon 20 insertion mutant (HER2ex20insYVMA, A775_G776insYVMA) (P04626 with tags, fused parts or gaps DUP772-775): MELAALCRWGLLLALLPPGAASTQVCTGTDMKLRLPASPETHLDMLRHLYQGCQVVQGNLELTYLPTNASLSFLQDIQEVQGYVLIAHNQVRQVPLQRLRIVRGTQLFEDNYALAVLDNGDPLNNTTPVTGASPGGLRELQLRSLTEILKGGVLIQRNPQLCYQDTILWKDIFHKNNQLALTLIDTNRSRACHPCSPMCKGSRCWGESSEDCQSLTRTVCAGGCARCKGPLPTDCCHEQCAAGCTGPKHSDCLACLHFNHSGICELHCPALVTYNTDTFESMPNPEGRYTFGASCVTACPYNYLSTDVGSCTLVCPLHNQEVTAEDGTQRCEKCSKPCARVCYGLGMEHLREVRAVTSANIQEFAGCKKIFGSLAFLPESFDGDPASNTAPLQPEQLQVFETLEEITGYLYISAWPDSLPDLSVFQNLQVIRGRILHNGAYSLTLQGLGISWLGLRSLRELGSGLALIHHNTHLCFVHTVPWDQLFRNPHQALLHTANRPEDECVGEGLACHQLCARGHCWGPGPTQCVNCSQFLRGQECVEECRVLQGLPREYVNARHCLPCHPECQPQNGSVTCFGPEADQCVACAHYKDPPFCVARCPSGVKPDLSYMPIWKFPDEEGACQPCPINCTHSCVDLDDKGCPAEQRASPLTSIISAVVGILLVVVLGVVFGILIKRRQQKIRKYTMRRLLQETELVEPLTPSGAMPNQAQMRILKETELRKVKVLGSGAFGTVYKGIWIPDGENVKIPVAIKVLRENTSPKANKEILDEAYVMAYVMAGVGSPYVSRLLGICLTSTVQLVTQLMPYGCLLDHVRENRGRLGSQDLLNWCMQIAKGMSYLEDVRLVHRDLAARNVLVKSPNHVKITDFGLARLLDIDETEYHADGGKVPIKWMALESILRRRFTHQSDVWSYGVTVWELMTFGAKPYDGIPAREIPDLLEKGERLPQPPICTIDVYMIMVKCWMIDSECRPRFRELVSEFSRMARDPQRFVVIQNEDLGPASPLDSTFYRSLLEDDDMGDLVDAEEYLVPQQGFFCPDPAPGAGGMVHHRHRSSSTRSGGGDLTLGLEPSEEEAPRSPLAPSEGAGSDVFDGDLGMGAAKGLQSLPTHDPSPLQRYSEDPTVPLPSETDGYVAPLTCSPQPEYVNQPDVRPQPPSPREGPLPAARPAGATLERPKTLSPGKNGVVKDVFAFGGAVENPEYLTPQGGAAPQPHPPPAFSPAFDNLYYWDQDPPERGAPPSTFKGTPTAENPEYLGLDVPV

A short description of data set [3]: Evaluation of oral absorbability. It is filed as in vivo, BALB/cA mice. Particulars: mouse; plasma, oral 50 mg/kg/day, BALB/cA mice. The method, then: The compound of the present invention was suspended or dissolved in 0.5% HPMC aqueous solution and 0.1 N hydrochloric acid, and the obtained suspension or solution was orally administered to BALB/cA mice (CLEA Japan, Inc.) at a dose of 50 mg/kg/day. At 0.5, 1, 2, 4 and 6 hours after completion of the oral administration, blood was collected from the facial vein over time, so as to obtain plasma. The concentration of the compound in the obtained plasma was measured by LC-MS/MS, and the oral absorbability of the present compound was evaluated.

For another data set, the target named is Ba/F3-HER2insYVMA cells (Homo sapiens, UniProt P04626, DUP772-775, cells depend on it). Description: Growth inhibitory activity against HER2 exon 20 insertion mutant expressing cell line. The class given is cell-based, mouse. The conditions noted are these: 3 days, CellTiter-Glo 2.0, read-out: HER2ex20insYVMA cell growth inhibitory activity IC50 value. The method, then:
Growth inhibitory activity against the HER2 exon 20 insertion mutant was measured using Ba/F3 cells that were a mouse B lymphocyte precursor cell line, into which a human HER2 exon 20 insertion mutant gene had been introduced. The Ba/F3 cells were maintained in an RPMI-1640 medium (Thermo Fisher Scientific) supplemented with 10% fetal bovine serum (FBS), 100 U/mL penicillin, 100 μg/mL streptomycin (Thermo Fisher Scientific) and 1 ng/mL mouse interleukin-3 (mIL-3) (CST).
Upon evaluation of cell growth inhibitory activity, the Ba/F3-HER2insYVMA cells were suspended in an RPMI-1640 medium supplemented with 10% FBS, 100 U/mL penicillin, and 100 μg/mL streptomycin. The cell suspension was seeded in each well of a 96-well flat-bottom microplate, and was then cultured in a 5% carbon dioxide gas-containing culture vessel at 37° C. for 1 day. The compound of the present invention was dissolved in DMSO, and was then diluted with DMSO or the medium used in the suspension of the cells. The obtained solution was then added to each well of the culture plate, so that the final concentration of DMSO became 0.2%. The obtained mixture was further cultured in the 5% carbon dioxide gas-containing culture vessel at 37° C. for 3 days. After completion of the culture for 3 days in the presence of the compound, the cells were counted using CellTiter-Glo 2.0 (manufactured by Promega), and the growth inhibition percentage was then calculated according to the following equation. […] Growth inhibitory percentage (%)=(C−T)/(C)×100 T: Emission intensity from the well to which the test compound was added C: Emission intensity from the well to which the test compound was not added

In another data set the target is T1, HER2 (Homo sapiens, UniProt P04626).
T1 construct: purchased Carna Biosciences, Inc
T1 sequence (P04626 23-1255): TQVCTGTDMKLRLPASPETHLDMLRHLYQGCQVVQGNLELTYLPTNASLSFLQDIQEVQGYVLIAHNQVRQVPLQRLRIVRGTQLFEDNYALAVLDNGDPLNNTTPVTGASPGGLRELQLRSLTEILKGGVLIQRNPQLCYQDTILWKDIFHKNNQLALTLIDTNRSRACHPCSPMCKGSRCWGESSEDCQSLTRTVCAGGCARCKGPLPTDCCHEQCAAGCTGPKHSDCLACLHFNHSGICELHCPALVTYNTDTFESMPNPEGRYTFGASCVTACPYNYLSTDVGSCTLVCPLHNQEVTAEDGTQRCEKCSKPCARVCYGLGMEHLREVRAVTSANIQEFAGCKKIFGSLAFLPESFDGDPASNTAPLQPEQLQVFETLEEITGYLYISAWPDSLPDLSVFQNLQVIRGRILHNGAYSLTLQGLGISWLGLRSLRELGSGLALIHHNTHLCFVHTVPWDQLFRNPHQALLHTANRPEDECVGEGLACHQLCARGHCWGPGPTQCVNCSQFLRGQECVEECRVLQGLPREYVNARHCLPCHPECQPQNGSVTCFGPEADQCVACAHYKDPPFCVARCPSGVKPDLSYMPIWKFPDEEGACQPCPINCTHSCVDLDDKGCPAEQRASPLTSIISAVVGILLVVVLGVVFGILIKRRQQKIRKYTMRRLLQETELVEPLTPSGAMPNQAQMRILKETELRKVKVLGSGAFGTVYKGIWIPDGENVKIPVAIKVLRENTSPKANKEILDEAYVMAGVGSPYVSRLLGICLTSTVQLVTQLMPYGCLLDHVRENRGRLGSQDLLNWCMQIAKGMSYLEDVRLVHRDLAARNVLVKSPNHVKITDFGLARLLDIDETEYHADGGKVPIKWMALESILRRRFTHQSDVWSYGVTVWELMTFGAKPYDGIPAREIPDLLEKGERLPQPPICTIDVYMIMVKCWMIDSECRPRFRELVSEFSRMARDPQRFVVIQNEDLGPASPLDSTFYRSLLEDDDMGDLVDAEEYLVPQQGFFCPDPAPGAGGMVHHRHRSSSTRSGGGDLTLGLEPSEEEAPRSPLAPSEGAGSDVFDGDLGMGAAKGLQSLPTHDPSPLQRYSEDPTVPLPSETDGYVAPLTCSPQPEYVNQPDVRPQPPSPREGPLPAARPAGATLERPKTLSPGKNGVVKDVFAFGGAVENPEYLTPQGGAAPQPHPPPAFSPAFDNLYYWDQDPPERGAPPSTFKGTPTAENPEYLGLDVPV
Description: Inhibitory effect (in vitro) on HER2 phosphorylation activity. It is filed as biochemical. Particulars: recombinant human HER2, ATP 5 μM, 25° C. 30 minutes. From the text: In order to determine conditions for a method of measuring the in vitro inhibitory activity of a compound against HER2 phosphorylation activity, based on the report regarding a HER2 kinase reaction using, as a substrate, a peptide having the same sequence (5-FAM-[…]-CONH2) as that of ProfilerPro Peptide 22 of PerkinElmer (Xie H et al., PLoS One. 2011; 6(7): e21487), ProfilerPro Peptide 22 was used as a substrate. A purified recombinant human HER2 protein used in the present test was purchased from Carna Biosciences, Inc. Upon the measurement of the inhibitory activity of the compound, first, the compound of the present invention was diluted stepwise with dimethyl sulfoxide (DMSO). […] To the reaction solution, EDTA was added to a final concentration of 30 mM, so as to terminate the reaction. Finally, using LabChip (registered trademark) EZ Reader II (PerkinElmer), an unphosphorylated substrate peptide (S) and a phosphorylated peptide (P) were separated and detected according to microchannel capillary electrophoresis.

The next data set concerns SK-BR-3 cells. Nature of the data set: Growth inhibitory activity against HER2 expressing cell line SK-BR-3. The class given is cell-based. Particulars: Homo sapiens, SK-BR-3, 72 h; 3 days, CellTiter-Glo 2.0. On the procedure: SK-BR-3 cells as a HER2 overexpressing human breast cancer cell line were suspended in a McCoy's 5a medium (manufactured by Life Technologies) supplemented with 10% fetal bovine serum. The cell suspension was seeded in each well of a 384-well flat-bottom microplate, and was then cultured in a 5% carbon dioxide gas-containing culture vessel at 37° C. for 1 day. Thereafter, the compound of the present invention was dissolved in DMSO, and the compound was diluted to 500 times the final concentration in DMSO. The compound in the DMSO solution was diluted with DMSO solution or the medium used in the suspension of the cells, and the obtained solution was then added to each well of the culture plate so that the final concentration of DMSO was 0.2%. The obtained mixture was further cultured in the 5% carbon dioxide gas-containing culture vessel at 37° C. for 3 days. After completion of the culture for 3 days in the presence of the compound, the cells were counted using CellTiter-Glo 2.0 (manufactured by Promega), and the growth inhibition percentage was then calculated according to the following equation. […] Growth inhibitory percentage (%)=(C−T)/(C)×100 T: Emission intensity from the well to which the test compound was added C: Emission intensity from the well to which the test compound was not added

The IC50 is the point on the concentration scale where inhibition reaches its midpoint. For orientation: AUC(0-t) means exposure summed from dosing to a finite time, without extrapolation to infinity. Low values mean less exposure, high ones more exposure.

Sequence of Ba/F3-HER2insYVMA cells (P04626 with tags, fused parts or gaps DUP772-775): as the sequence (P04626 with tags, fused parts or gaps DUP772-775) above

With `CS(=O)(=O)CCNCc1ccc(-c2ccc3ncnc(Nc4ccc(OCc5cccc(F)c5)c(Cl)c4)c3c2)o1` [Lapatinib], the “effects against brain metastatic cancer” value in the data set on brain metastatic cancer is reported as “sufficient effects of these agents could not be obtained”. Also, in data set [1], the brain penetration properties entry is reported as “limited”. Moreover, the “substrate of p-gp or Bcrp” value in the data set with p-gp or Bcrp is “substrates of p-gp or Bcrp”.

In the case of `C=CC(=O)N1C[C@H](n2c(C#CC)c(C(=O)N[C@H](C)c3ccc(F)cc3F)c3c(N)ncnc32)C[C@@H]1C` [Example 7, 7-((3R,5S)-1-acryloyl-5-methylpyrrolidin-3-yl)-4-amino-N—((R)-1-(2,4-difluorophenyl)ethyl)-6-(prop-1-yn-1-yl)-7H-pyrrolo[2,3-d]pyrimidine-5-carboxamide], the IC50 was 11.1 nM with NCI-N87 cells, 0.39 nM in [2], 4.9 nM at HER2 and 12 nM in the data set with SK-BR-3 cells. This compound yielded an AUC(0-t) in [3] of 15 µM·h. The GI50 on Ba/F3-HER2insYVMA cells worked out at 40 nM.

With `CCOc1cc2ncc(C#N)c(Nc3ccc(OCc4ccccn4)c(Cl)c3)c2cc1NC(=O)/C=C/CN(C)C` [Neratinib], the “effects against brain metastatic cancer” value in the data set with brain metastatic cancer is on record as “sufficient effects of these agents could not be obtained”. For the same compound, the brain penetration properties entry in data set [1] is recorded as “limited”. For the same compound, in the data set on p-gp or Bcrp, the “substrate of p-gp or Bcrp” value is recorded as “substrates of p-gp or Bcrp”.

`C=CC(=O)N1C[C@H](n2c(C#CC3CC3)c(C(=O)N[C@H](C)c3ccccc3)c3c(N)ncnc32)C[C@@H]1COCC` [Example 19, 7-((3R,5R)-1-acryloyl-5-(ethoxymethyl)pyrrolidin-3-yl)-4-amino-6-(cyclopropylethynyl)-N—((R)-1-phenylethyl)-7H-pyrrolo[2,3-d]pyrimidine-5-carboxamide]: the IC50 in the data set with NCI-N87 cells was found to be 7.9 nM; in data set [2], 1.1 nM; at HER2, 4.4 nM; in the data set on SK-BR-3 cells it was 17 nM. In addition, the AUC(0-t) in data set [3] turned out to be 6.1 µM·h. Further, on Ba/F3-HER2insYVMA cells, the GI50 was 50 nM.
